{"source": "patent US8609680B2", "about": "“2,3-dihydro-1H-inden-1-yl-2,7-diazaspiro[3.5] nonane derivatives” (Pfizer Inc., priority 2010, dated 2013)", "key": {"[1]": {"target": "T1, human GHSR1a (Homo sapiens, UniProt Q92847)", "T1 construct": "expressed in transfected cells; host or cells: HEK293 Tetracycline-Inducible cell line, used as membranes", "T1 sequence (Q92847 whole entry)": "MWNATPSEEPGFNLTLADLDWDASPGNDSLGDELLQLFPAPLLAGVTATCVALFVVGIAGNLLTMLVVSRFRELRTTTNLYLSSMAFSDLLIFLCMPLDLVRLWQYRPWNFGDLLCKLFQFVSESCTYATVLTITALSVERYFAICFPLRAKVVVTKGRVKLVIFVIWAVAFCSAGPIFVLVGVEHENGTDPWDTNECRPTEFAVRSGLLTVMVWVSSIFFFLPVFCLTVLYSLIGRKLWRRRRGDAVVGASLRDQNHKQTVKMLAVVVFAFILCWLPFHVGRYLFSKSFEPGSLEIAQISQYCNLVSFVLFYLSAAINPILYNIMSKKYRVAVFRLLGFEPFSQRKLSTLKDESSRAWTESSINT", "test": "Human Ghrelin Functional Assay (DELFIA GTP-binding assay)", "type": "biochemical", "conditions": "GTP-Europium exchange, human GHSR1a membranes, with and without ghrelin at EC80", "protocol": "Human Ghrelin Functional Assay\nTo measure the ability of test compounds in the present invention to modulate the activity of human GHSR1a (agonize, antagonize, partially agonize, inversely agonize), a DELFIA GTP-binding assay (Perkin Elmer, AD0260 and AD0261) is performed. The assay monitors the ligand-dependent exchange of GDP for GTP. GPCR activation results in an increase in fluorescence as receptor-bound GDP is replaced by Europium-labeled GTP.\nGhrelin functional assays are performed in a final volume of 39.5 μl containing 720 ng human GHSR1a (HEK293 Tetracycline-Inducible cell line expressing the human growth secretagogue receptor la, prepared as membranes), 9 nM GTP-Europium and varying concentrations of test compound or vehicle. To test for receptor antagonism, membranes are incubated in the presence of agonist ghrelin (Anaspec, 24158) at the EC80 concentration, plus test compound or vehicle.\nBriefly, test compounds are prepared at room temperature in 384-well plates (Matrix, 4340). […] Samples are then transferred as 6 μl to 384-well filter plates (Pall, 5071) containing 30 μl of 24 μg/ml hGHSR1a membrane and 0.35 mg/ml saponin (Perkin Elmer, AD0261) in basal buffer.\nThe mixture is incubated 24 minutes at room temperature with gentle shaking, followed by the addition of 3.5 μl of 100 nM GTP-Europium in 50 mM HEPES, pH 7.4. Samples are shielded from light and incubated for 90 minutes further at room temperature with gentle shaking. The reactions are suctioned dry with vacuum, washed three times with 75 μl ice cold 1× GTP Wash Solution (Perkin Elmer, AD0261), and immediately read on the Envision 2101 Multilabel Reader (Perkin Elmer) using excitation filter 320 nm and emission filter 615 nm."}, "[2]": {"target": "T1, human GHSR1a", "test": "Human Ghrelin SPA Binding Assay", "source_text": "The SPA format was utilized for high throughput screening of test compounds and filter binding served for more comprehensive binding characterization.\nHuman Ghrelin SPA Binding Assay"}, "[3]": {"conditions": "SPA format, [125I] ghrelin displacement, human GHSR1a membranes, Ki=IC50/(1+[ligand]/Kd)"}}, "note": "pIC50, pKi: −log10 of the molar value. Like-named read-outs stand apart in the source and are kept apart here."}
{"smiles": "COc1ccc(CC(=O)N2CCC3(CC2)CN([C@@H]2CCc4cc(-c5nccc(C)n5)ccc42)C3)nc1", "note": "[Example 3S]", "values": [{"measurement": "functional comment", "setting": "[1]", "result": "inverse agonist"}, {"measurement": "pIC50", "setting": "[2]", "result": 7.75}, {"measurement": "pKi", "setting": "[2]", "result": 7.81}]}
{"smiles": "Cc1ccnc(-c2ccc3c(c2)CC[C@H]3N2CC3(CCN(C(=O)Cc4ccc5c(n4)OCCO5)CC3)C2)n1", "note": "[Example 3U]", "values": [{"measurement": "functional comment", "setting": "[1]", "result": "inverse agonist"}, {"measurement": "pIC50", "setting": "[2]", "result": 8.09}, {"measurement": "pKi", "setting": "[2]", "result": 8.16}]}
{"smiles": "CCc1cnc(-c2ccc3c(c2)CC[C@H]3N2CC3(CCN(C(=O)Cc4ccc(OC)cc4)CC3)C2)nc1", "note": "[Example 3W]", "values": [{"measurement": "functional comment", "setting": "[1]", "result": "inverse agonist"}, {"measurement": "pIC50", "setting": "[2]", "result": 7.76}, {"measurement": "pKi", "setting": "[2]", "result": 7.83}]}
{"smiles": "Cc1ccn2cc(CC(=O)N3CCC4(CC3)CN([C@@H]3CCc5cc(-c6ncccn6)ccc53)C4)nc2c1", "note": "[Example 3X]", "values": [{"measurement": "functional comment", "setting": "[1]", "result": "inverse agonist"}, {"measurement": "pIC50", "setting": "[2]", "result": 7.44}, {"measurement": "pKi", "setting": "[2]", "result": 7.50}]}
{"smiles": "Cc1cc(-c2ccc3c(c2)CC[C@H]3N2CC3(CCN(C(=O)Cc4cn5nc(C)sc5n4)CC3)C2)ncn1", "note": "[Example 3Z, 7-[(2-methylimidazo[2,1-b][1,3,4]thiadiazol-6-yl)acetyl]-2-[(1R)-5-(6-methylpyrimidin-4-yl)-2,3-dihydro-1H-inden-1-yl]-2,7-diazaspiro[3.5]nonane]", "values": [{"measurement": "functional comment", "setting": "[1]", "result": "inverse agonist"}, {"measurement": "pIC50", "setting": "[2]", "result": 8.17}, {"measurement": "pKi", "setting": "[2]", "result": 8.22}]}
{"smiles": "CCc1ccc(CC(=O)N2CCC3(CC2)CN([C@@H]2CCc4cc(-c5ncccn5)ccc42)C3)nc1", "note": "[Example 5B]", "values": [{"measurement": "functional comment", "setting": "[1]", "result": "inverse agonist"}, {"measurement": "pIC50", "setting": "[2]", "result": 7.94}, {"measurement": "pKi", "setting": "[2]", "result": 7.98}]}
{"smiles": "Cc1ccc(CC(=O)N2CCC3(CC2)CN([C@@H]2CCc4cc(-n5nccn5)ccc42)C3)nc1", "note": "[Example 5C]", "values": [{"measurement": "functional comment", "setting": "[1]", "result": "inverse agonist"}, {"measurement": "pKi", "setting": "[2]; [3]", "result": 7.98}]}
{"smiles": "COc1ccc(CC(=O)N2CCC3(CC2)CN([C@@H]2CCc4cc(-c5cc(C)nc(C)n5)ccc42)C3)nc1", "note": "[Example 5G]", "values": [{"measurement": "functional comment", "setting": "[1]", "result": "inverse agonist"}, {"measurement": "pIC50", "setting": "[2]", "result": 7.40}, {"measurement": "pKi", "setting": "[2]", "result": 7.48}]}
{"smiles": "Cc1ccn2cc(CC(=O)N3CCC4(CC3)CN([C@@H]3CCc5cc(-n6nccn6)ccc53)C4)nc2c1", "note": "[Example 6C]", "values": [{"measurement": "functional comment", "setting": "[1]", "result": "inverse agonist"}, {"measurement": "pIC50", "setting": "[2]", "result": 7.43}, {"measurement": "pKi", "setting": "[2]", "result": 7.49}]}
{"smiles": "COc1ccc(CC(=O)N2CCC3(CC2)CN([C@@H]2CCc4cc(-n5nccn5)ccc42)C3)nc1", "note": "[Example 6D]", "values": [{"measurement": "functional comment", "setting": "[1]", "result": "inverse agonist"}, {"measurement": "pIC50", "setting": "[2]", "result": 8.46}, {"measurement": "pKi", "setting": "[2]; [3]", "result": 8.48}]}
{"smiles": "COc1ccc(CC(=O)N2CCC3(CC2)CN([C@@H]2CCc4cc(-n5nccn5)ccc42)C3)cc1", "note": "[Example 6E]", "values": [{"measurement": "functional comment", "setting": "[1]", "result": "inverse agonist"}, {"measurement": "pIC50", "setting": "[2]", "result": 8.42}, {"measurement": "pKi", "setting": "[2]", "result": 8.51}]}
{"smiles": "Cc1cn2cc(CC(=O)N3CCC4(CC3)CN([C@@H]3CCc5cc(-n6nccn6)ccc53)C4)nc2s1", "note": "[Example 6F]", "values": [{"measurement": "functional comment", "setting": "[1]", "result": "inverse agonist"}, {"measurement": "pIC50", "setting": "[2]", "result": 8.22}, {"measurement": "pKi", "setting": "[2]", "result": 8.29}]}
{"smiles": "COc1ccc(CC(=O)N2CCC3(CC2)CN([C@@H]2CCc4cc(-n5nccn5)ccc42)C3)c(NC(C)=O)c1", "note": "[Example 6H]", "values": [{"measurement": "functional comment", "setting": "[1]", "result": "inverse agonist"}, {"measurement": "pIC50", "setting": "[2]", "result": 7.66}, {"measurement": "pKi", "setting": "[2]", "result": 7.71}]}
{"smiles": "Cc1ccn2cc(CC(=O)N3CCC4(CC3)CN([C@@H]3CCc5cc(-c6ccc(C(N)=O)nc6)ccc53)C4)nc2c1", "note": "[Example 9F]", "values": [{"measurement": "functional comment", "setting": "[1]", "result": "inverse agonist"}, {"measurement": "pIC50", "setting": "[2]", "result": 7.64}, {"measurement": "pKi", "setting": "[2]", "result": 7.69}]}
{"smiles": "NC(=O)c1ccc(-c2ccc3c(c2)CC[C@H]3N2CC3(CCN(C(=O)Cc4ccc(C5CC5)cn4)CC3)C2)cn1", "note": "[Example 10E]", "values": [{"measurement": "functional comment", "setting": "[1]", "result": "inverse agonist"}, {"measurement": "pIC50", "setting": "[2]", "result": 8.00}, {"measurement": "pKi", "setting": "[2]", "result": 8.05}]}
{"smiles": "Cc1nn2cc(CC(=O)N3CCC4(CC3)CN([C@@H]3CCc5cc(-c6ccc(C(N)=O)nc6)ccc53)C4)nc2s1", "note": "[Example 10F]", "values": [{"measurement": "functional comment", "setting": "[1]", "result": "inverse agonist"}, {"measurement": "pIC50", "setting": "[2]", "result": 7.80}, {"measurement": "pKi", "setting": "[2]", "result": 7.85}]}
{"smiles": "Cc1ccn2cc(CC(=O)N3CCC4(CC3)CN([C@@H]3CCc5cc(-c6cc(C(N)=O)ncn6)ccc53)C4)nc2c1", "note": "[Example 10G]", "values": [{"measurement": "functional comment", "setting": "[1]", "result": "inverse agonist"}, {"measurement": "pIC50", "setting": "[2]", "result": 7.22}, {"measurement": "pKi", "setting": "[2]", "result": 7.27}]}
